Reference: US10287298B2, “Nitrogen-containing analogs of salinomycin, synthesis and use against cancer stem cells and malaria” (Centre National de la Recherche Scientifique (CNRS), priority 2014, dated 2019)
Read-outs that look alike come from different tables or passages of the source.

How the values were obtained:
HMLER CD24− cells [1] = experiment: Cell viability assay (CellTiter-Blue), IC50 assessment; assay type: cell-based, Human; conditions: for IC50: Homo sapiens, read-out: IC50 CD24−
Experimental: (§1) FIG. 1 represents viability of HMLER CD24− cells (full line) and HMLER CD24+ cells (dotted line) at different concentration of salinomycine (1A), AM5 […] or AM13 (1D).
(§2) Cell viability assay was carried out by plating 1000 cells per well in 96-well plates. NAC (2 mM, A9165 Sigma) or DFO (1 mM) were pretreated 2 hours prior to the compound treatment. CellTiter-Blue® Reagent (Promega; G3582) (20 μl/well) was added after 24, 48, or 72 hours treatment and cells were incubated for 1 hour before recording fluorescence (560(20)Ex/590(10)Em) using a Perkin Elmer Wallac 1420 Victor2 Microplate Reader.

HMLER CD24− cells [2] = experiment: Cell proliferation and formation of mammospheres; assay type: cell-based, Human
Source text: FIG. 2 is a representative phase contrast photomicrographs of mammospheres formed after 11 days in the absence of any added compound (Control) or in the presence of a defined amount of salinomycine, AM5, AM9 or AM13. […] The size of the mammospheres is correlated with progenitor cell proliferation, whereas the number of mammospheres formed after serial passages at clonal density is correlated with the self-renewal capacity of primitive Cancer Stem Cells. […]
FIG. 9 represents images of the third generation of mammospheres formed from individual HMLER CD24low cells treated during 7 days with the indicated drug. The size of the mammospheres is correlated with progenitor cell proliferation capacity, whereas the number of mammospheres formed after serial passages at clonal density is correlated with the self-renewal capacity of primitive Cancer Stem Cells.
AM5, AM9, AM13 and salinomycine were assessed for their capability to inhibit cell proliferation and formation of mammospheres. […]
AM5 and AM23 and salinomycine were assessed for their capability to inhibit cell proliferation and formation of mammospheres.

MCF-7 = experiment: Cell death IC50, Annexin V-FITC/PI flow cytometry; assay type: cell-based; conditions: Homo sapiens, read-out: IC50 MCF-7
Experimental: (§3) The cells were seeded in a 6-well plate at density 5.105 cells/well and cultured overnight. The cells were then treated with various concentration (15, 30, 100, 500, 1000 and 10.000 nM) of salinomycine, AM5 and AM23 for 72 h, 96 h and 108 h. After treatment, cell death was quantified using Annexin V-FITC/Propidium Iodide (PI) assay according to the manufacturer's protocol (FITC Annexin V Apoptosis Detection Kit II, 556570, BD Pharmingen™) and analyzed by a LSRFortessa™ flow cytometer (BD Bioscience, San Jose, Calif.). The data were processed using Cell Quest software (BD Biosciences). Dose-response cell death curves were determined for indicated time.
(§4) For tumor cells, the cells are classified in function of their sensitivity of drugs. Here, the most sensitive cells are incubated for 72 h, the middle sensitive cells for 96 h and the less sensitive or resistant cells are incubated for 108 h with drug at several concentrations.
(§5) Concentrations of 30 nM, 500 nm and 1 μM were used for determining the IC50 of drugs.
(§6) Intervals][…]] mean that IC50 is included in this interval with exclusion of the valor 30 nM.

MDA-MB-361 = experiment: Cell death IC50, Annexin V-FITC/PI flow cytometry; assay type: cell-based; conditions: Homo sapiens, read-out: IC50 MDA-MB-361
Experimental: as §3, §4, §5, §6

HBL100 = experiment: Cell death IC50, Annexin V-FITC/PI flow cytometry; assay type: cell-based; conditions: Homo sapiens
Experimental: as §3, §4, §5, §6

BT549 = experiment: Cell death IC50, Annexin V-FITC/PI flow cytometry; assay type: cell-based; conditions: Homo sapiens, read-out: IC50 BT549
Experimental: as §3, §4, §5, §6

HMLER ID2 = experiment: Cell death IC50, Annexin V-FITC/PI flow cytometry; assay type: cell-based; conditions: Homo sapiens, read-out: IC50 HMLER ID2
Experimental: as §3, §4, §5, §6

HMLER CD24low = experiment: Cell death IC50, Annexin V-FITC/PI flow cytometry; assay type: cell-based; conditions: Homo sapiens, read-out: IC50 HMLER CD24low
Experimental: as §3, §4, §5, §6

HMLER GFP = experiment: Cell death IC50, Annexin V-FITC/PI flow cytometry; assay type: cell-based; conditions: Homo sapiens; 1rst sensibility (72 h)
Experimental: as §3, §4, §5, §6

HMLER shECAD = experiment: Cell death IC50, Annexin V-FITC/PI flow cytometry; assay type: cell-based; conditions: Homo sapiens, read-out: IC50 HMLER shECAD
Experimental: as §3, §4, §5, §6

MDA-MB-231 = experiment: Cell death IC50, Annexin V-FITC/PI flow cytometry; assay type: cell-based; conditions: Homo sapiens, read-out: IC50 MDA-MB-231
Experimental: as §3, §4, §5, §6

T47D = experiment: Cell death IC50, Annexin V-FITC/PI flow cytometry; assay type: cell-based; conditions: Homo sapiens, Resistant (108 h)
Experimental: as §3, §4, §5, §6

BT474 = experiment: Cell death IC50, Annexin V-FITC/PI flow cytometry; assay type: cell-based; conditions: Homo sapiens, read-out: IC50 BT474
Experimental: as §3, §4, §5, §6

MDA-MD-157 = experiment: Cell death IC50, Annexin V-FITC/PI flow cytometry; assay type: cell-based; conditions: Homo sapiens, read-out: IC50 MDA-MD-157
Experimental: as §3, §4, §5, §6

HMLE W2 = experiment: Cell death IC50, Annexin V-FITC/PI flow cytometry; assay type: cell-based; conditions: Homo sapiens, read-out: IC50 HMLE W2
Experimental: as §3, §4, §5, §6

BT20 = experiment: Cell death IC50, Annexin V-FITC/PI flow cytometry; assay type: cell-based; conditions: Homo sapiens, read-out: IC50 BT20
Experimental: as §3, §4, §5, §6

Zr75.1 = experiment: Cell death IC50, Annexin V-FITC/PI flow cytometry; assay type: cell-based; conditions: Homo sapiens, read-out: IC50 Zr75.1
Experimental: as §3, §4, §5, §6

MDA-MB-134 = experiment: Cell death IC50, Annexin V-FITC/PI flow cytometry; assay type: cell-based; conditions: Homo sapiens, read-out: IC50 MDA-MB-134
Experimental: as §3, §4, §5, §6

HMLER CD24+ cells = experiment: Cell viability assay (CellTiter-Blue), IC50 assessment; assay type: cell-based; conditions: Homo sapiens, read-out: IC50 CD24+
Experimental: as §1, §2

SW480 = experiment: Cell death IC50, Annexin V-FITC/PI flow cytometry; assay type: cell-based; conditions: Homo sapiens, read-out: IC50 SW480
Experimental: as §3, §4, §5, §6
(§7) The SW620 and SW480 cell lines are from colon tumors.

SW620 = experiment: Cell death IC50, Annexin V-FITC/PI flow cytometry; assay type: cell-based; conditions: Homo sapiens, read-out: IC50 SW620
Experimental: as §3, §4, §5, §6, §7

MDA-MB-231 cells = experiment: Dead cells by DIOC6(3)/DAPI test with cathepsine B inhibitor; assay type: cell-based, Human; conditions: 500 nM; COA74-Me 30 μM; 48 h, 96 h, 108 h
Experimental: From the treatment, dead cells were assessed by DIOC6(3)/DAPI test and analyzed by flow cytometry.

[3] = third generation of mammospheres, HMLER CD24low cells treated 7 days

With CCC(C(=O)O)[C@H]1CC[C@H](C)C([C@@H](C)[C@H](O)[C@H](C)C(=O)[C@H](CC)[C@H]2O[C@]3(C=C[C@@H](O)[C@]4(CC[C@@](C)([C@H]5CC[C@](O)(CC)[C@H](C)O5)O4)O3)[C@H](C)C[C@@H]2C)O1 (stereo partly drawn) [Salinomycine, Salinomycin] the IC50 (HMLER CD24− cells [1]) was 1560 nM, the size of mammospheres (HMLER CD24− cells [2]; [3]) was “do not alter the tumor diameters” and the IC50 (MCF-7; MCF7, 72 h) was 30 to 500 nM. The IC50 (MDA-MB-361; MDA-MB-361, 96 h) was 500 nM, the IC50 (HBL100; HBL-100, read-out: IC50 HBL100) was over 1000 nM and the IC50 (BT549; BT-549, 108 h) was over 1000 nM. For the same molecule, the IC50 (HMLER ID2; 72 h) was over 1000 nM, the IC50 (HMLER CD24low; 72 h) was 30 to 500 nM and the IC50 (HMLER GFP) was 1000 nM. For the same molecule, the IC50 (HMLER shECAD; 72 h) was 30 to 500 nM, the IC50 (MDA-MB-231; MDA-MB-231, 96 h) was over 1000 nM and the IC50 (T47D) was over 1000 nM. The IC50 (BT474; BT-474, 96 h) was over 1000 nM, the IC50 (MDA-MD-157; 96 h) was 1000 nM and the IC50 (HMLE W2) was over 1000 nM. The IC50 (BT20; BT-20, 108 h) was 500 nM, the IC50 (Zr75.1; ZR-75-1, 72 h) was 500 nM and the IC50 (MDA-MB-134; 96 h) was 30 to 500 nM. It also gave an IC50 (HMLER CD24+ cells) of 11000 nM, an IC50 (SW480; SW480, 108 h) of 30 to 500 nM and an IC50 (SW620; SW-620, 108 h) of 500 to 1000 nM. The “death of MDA-MB-231 cells in combination with cathepsine B inhibition” value (MDA-MB-231 cells) was “combine themselves to induce the death”.
For C#CCN[C@@H]1C=C[C@]2(O[C@H]([C@@H](CC)C(=O)[C@@H](C)[C@@H](O)[C@H](C)C3O[C@@H](C(CC)C(=O)O)CC[C@@H]3C)[C@@H](C)C[C@H]2C)O[C@@]12CC[C@@](C)([C@H]1CC[C@](O)(CC)[C@H](C)O1)O2 (stereo partly drawn) [AM5, Sal-Propargylamine], the IC50 (HMLER CD24− cells [1]; HMLER CD24− cells, cell viability) was 84.9 nM, the “activity against CD24 cells compared with salinomycine” value (HMLER CD24− cells [1]; comparison of the IC50 results) was “significantly improved activity” and the “inhibition of cell proliferation, efficacy in comparison with salinomycine” value (HMLER CD24− cells [2]; at 30 nM) was “ten-fold improved efficacy”. For the same molecule, the “number and size of mammosphere” value (HMLER CD24− cells [2]; mammospheres after 11 days, low nanomolar concentrations) was “reduced the number and the size of mammosphere”, the number of mammospheres (HMLER CD24− cells [2]; [3]) was “reduced the number of mammospheres” and the size of mammospheres (HMLER CD24− cells [2]; [3]) was “do not alter the tumor diameters”. It also gave an IC50 (MCF-7; MCF7, 1rst sensibility (72 h), ]30-500] excludes 30 nM) of 30 to 500 nM, an IC50 (MDA-MB-361; MDA-MB-361, 2nd sensibility (96 h)) of 500 nM and an IC50 (HBL100; HBL-100, No tumoral, read-out: IC50 HBL100) of over 1000 nM. It also gave an IC50 (BT549; BT-549, Resistant (108 h)) of over 1000 nM, an IC50 (HMLER ID2; 1rst sensibility (72 h)) of over 1000 nM and an IC50 (HMLER CD24low; 1rst sensibility (72 h)) of under 30 nM. For the same molecule, the IC50 (HMLER GFP) was 1000 nM, the IC50 (HMLER shECAD; 1rst sensibility (72 h)) was 30 to 500 nM and the IC50 (MDA-MB-231; MDA-MB-231, 2nd sensibility (96 h)) was over 1000 nM. It also gave an IC50 (T47D) of over 1000 nM, an IC50 (BT474; BT-474, 2nd sensibility (96 h)) of over 1000 nM and an IC50 (MDA-MD-157; 2nd sensibility (96 h)) of 500 nM. It also gave an IC50 (HMLE W2; Immortalized) of over 1000 nM, an IC50 (BT20; BT-20, 3rd sensibility (108 h)) of 30 to 500 nM and an IC50 (Zr75.1; ZR-75-1, 1rst sensibility (72 h), ]30-500] excludes 30 nM) of 30 to 500 nM. The IC50 (MDA-MB-134; 2nd sensibility (96 h)) was 30 to 500 nM, the IC50 (HMLER CD24+ cells; HMLER CD24+ cells, cell viability) was 3510 nM and the IC50 (SW480; SW480, 3rd sensibility (108 h), colon tumor cells) was 30 to 500 nM. For the same molecule, the IC50 (SW620; SW-620, 3rd sensibility (108 h), colon tumor cells) was 30 to 500 nM and the “death of MDA-MB-231 cells in combination with cathepsine B inhibition” value (MDA-MB-231 cells) was “combine themselves to induce the death”.
